Assay results published in patent publication US10294202B2, “Pyrrolidinones as herbicides” (FMC Corporation, priority 2013, dated 2019).

Key:
barnyardgrass [1] = test: Test A pre-/postemergence herbicide test; type: in vivo, Echinochloa crus-galli
In short: (§1)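 Seeds sown in loam soil/sand blend received a preemergence directed soil spray of test chemical in non-phytotoxic solvent with surfactant; postemergence plants (2–10 cm, one- to two-leaf stage) were sprayed with the same formulation. After about 10 days in greenhouse, injury was rated visually versus untreated controls, 0 (no effect) to 100 (complete control).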

kochia = test: Test A pre-/postemergence herbicide test; type: in vivo, Kochia scoparia; conditions: for Plant response rating, Kochia: 0 to 100 scale
In short: as §1

ragweed = test: Test A pre-/postemergence herbicide test; type: in vivo, Ambrosia elatior; conditions: for Plant response rating, Ragweed: 0 to 100 scale
In short: as §1

ryegrass, Italian = test: Test A pre-/postemergence herbicide test; type: in vivo, Lolium multiflorum; conditions: for Plant response rating, Ryegrass, Italian: 0 to 100 scale
In short: as §1

giant foxtail = test: Test A pre-/postemergence herbicide test; type: in vivo, Setaria faberii; conditions: for Plant response rating, Foxtail, Giant: 0 to 100 scale
In short: as §1

pigweed = test: Test A pre-/postemergence herbicide test; type: in vivo, Amaranthus retroflexus; conditions: for Plant response rating, Pigweed: 0 to 100 scale
In short: as §1

wheat = test: Test A pre-/postemergence herbicide test; type: in vivo, Triticum aestivum; conditions: Postemergence; for Plant response rating, Wheat: 125 g ai/ha, 0 to 100 scale, 0 no effect, 100 complete control; for Wheat plant response rating (0 to 100 scale, 0 is no effect, 100 is complete control): 500 g ai/ha
In short: as §1

corn = test: Test A pre-/postemergence herbicide test; type: in vivo, Zea mays; conditions: Postemergence
In short: as §1

blackgrass = test: Test A postemergence herbicide test; type: in vivo, Alopecurus myosuroides
In short: (§2)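 Ratings compare treated with untreated plants roughly 10 days after a postemergence application made at the one- to two-leaf stage. Scoring uses 0–100, where 0 means no effect and 100 complete control.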

galium = test: Test A postemergence herbicide test; type: in vivo, Galium aparine; conditions: for Plant response rating, Galium: 125 g ai/ha, 0 to 100 scale, 0 no effect, 100 complete control; for Galium plant response rating (0 to 100 scale, 0 is no effect, 100 is complete control): 500 g ai/ha
In short: as §2

rice = test: Test C flooded paddy test; type: in vivo, Oryza sativa; conditions: Flood
In short: (§3)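 Visual injury scored against controls after 13 to 15 days in the greenhouse, using 0 (no effect) to 100 (complete control). Test compounds went straight into paddy water held 3 cm above the soil surface on 2-leaf-stage plants, with that flood depth maintained for the whole test.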

sedge, umbrella = test: Test C flooded paddy test; type: in vivo, Cyperus difformis; conditions: Flood
In short: as §3

ducksalad = test: Test C flooded paddy test; type: in vivo, Heteranthera limosa; conditions: Flood
In short: as §3

barnyardgrass [2] = test: Test C flooded paddy test; type: in vivo, Echinochloa crus-galli; conditions: Flood
In short: as §3

[3] = 125 g ai/ha, visual rating, 0 to 100 scale, 0 no effect, 100 complete control, approximately 10 days, preemergence
[4] = Postemergence, 125 g ai/ha, 0 to 100 scale, 0 no effect, 100 complete control
[5] = Postemergence, 500 g ai/ha, 0 to 100 scale (0 no effect, 100 complete control)
[6] = preemergence, 500 g ai/ha, 0 to 100 scale (0 no effect, 100 complete control)
[7] = 125 g ai/ha, visual rating, 0 no effect, 100 complete control, approximately 10 days, preemergence
[8] = Postemergence, 125 g ai/ha, 0 no effect, 100 complete control
[9] = 125 g ai/ha, 0 to 100 scale, 0 no effect, 100 complete control
[10] = 500 g ai/ha, 0 to 100 scale (0 no effect, 100 complete control)
[11] = 125 g ai/ha, scale of 0 to 100 where 0 is no effect and 100 is complete control, 13 to 15 days

O=C1NCC(c2cccc(C(F)(F)F)c2)C1C(=O)Nc1nc(C(F)(F)F)co1 (racemic) [Compound 114]
20: Plant response rating, Barnyardgrass (barnyardgrass [1]; [3]) | Plant response rating, Barnyardgrass (barnyardgrass [1]; [4]) | Kochia plant response rating (0 to 100 scale, 0 is no effect, 100 is complete control) (kochia; Postemergence, 500 g ai/ha) | Plant response rating, Foxtail, Giant (giant foxtail; [7]) | Wheat plant response rating (0 to 100 scale, 0 is no effect, 100 is complete control) (wheat) | Plant response rating, Corn (corn; [10]) | Plant response rating, Blackgrass (blackgrass; [9]) | Galium plant response rating (0 to 100 scale, 0 is no effect, 100 is complete control) (galium) | Plant response rating, Ducksalad (ducksalad; [11])
0: Plant response rating, Kochia (kochia; [7]) | Plant response rating, Kochia (kochia; [8]) | Plant response rating, Kochia (kochia; preemergence, 500 g ai/ha) | Plant response rating, Ragweed (ragweed; [7]) | Plant response rating, Ragweed (ragweed; [8]) | Ragweed plant response rating (0 to 100 scale, 0 is no effect, 100 is complete control) (ragweed; Postemergence, 500 g ai/ha) | Plant response rating, Ragweed (ragweed; preemergence, 500 g ai/ha) | Plant response rating, Ryegrass, Italian (ryegrass, Italian; [7]) | Plant response rating, Ryegrass, Italian (ryegrass, Italian; [8]) | Plant response rating, Pigweed (pigweed; [7]) | Plant response rating, Pigweed (pigweed; [8]) | Pigweed plant response rating (0 to 100 scale, 0 is no effect, 100 is complete control) (pigweed; Postemergence, 500 g ai/ha) | Plant response rating, Pigweed (pigweed; preemergence, 500 g ai/ha) | Plant response rating, Wheat (wheat) | Plant response rating, Corn (corn; [9]) | Plant response rating, Galium (galium) | Plant response rating, Rice (rice; [11]) | Plant response rating, Rice (rice; 250 g ai/ha, scale 0 to 100) | Plant response rating, Rice (rice; 500 g ai/ha, scale 0 to 100) | Plant response rating, Rice (rice; 1000 g ai/ha, scale 0 to 100) | Plant response rating, Sedge, Umbrella (sedge, umbrella; [11]) | Plant response rating, Sedge, Umbrella (sedge, umbrella; 250 g ai/ha, scale 0 to 100) | Plant response rating, Sedge, Umbrella (sedge, umbrella; 500 g ai/ha, scale 0 to 100) | Plant response rating, Sedge, Umbrella (sedge, umbrella; 1000 g ai/ha, scale 0 to 100) | Plant response rating, Barnyardgrass (barnyardgrass [2]; [11]) | Plant response rating, Barnyardgrass (barnyardgrass [2]; 250 g ai/ha, scale 0 to 100) | Plant response rating, Barnyardgrass (barnyardgrass [2]; 500 g ai/ha, scale 0 to 100) | Plant response rating, Barnyardgrass (barnyardgrass [2]; 1000 g ai/ha, scale 0 to 100)
70: Foxtail, Giant plant response rating (0 to 100 scale, 0 is no effect, 100 is complete control) (giant foxtail; Postemergence, 500 g ai/ha) | Plant response rating, Foxtail, Giant (giant foxtail; preemergence, 500 g ai/ha) | Plant response rating, Ducksalad (ducksalad; 500 g ai/ha, scale 0 to 100)
30: Plant response rating, Ryegrass, Italian (ryegrass, Italian; preemergence, 500 g ai/ha) | Plant response rating, Blackgrass (blackgrass; [10]) | Plant response rating, Ducksalad (ducksalad; 250 g ai/ha, scale 0 to 100)
80: Plant response rating, Ducksalad (ducksalad; 1000 g ai/ha, scale 0 to 100)
50: Plant response rating, Barnyardgrass (barnyardgrass [1]; [6])
40: Plant response rating, Foxtail, Giant (giant foxtail; [8])
60: Plant response rating, Barnyardgrass (barnyardgrass [1]; [5]) | Ryegrass, Italian plant response rating (0 to 100 scale, 0 is no effect, 100 is complete control) (ryegrass, Italian; Postemergence, 500 g ai/ha)

O=C1NCC(c2cccc(C(F)(F)F)c2)C1C(=O)Nc1ncc(Cl)s1 (racemic) [Compound 113]
50: Plant response rating, Ducksalad (ducksalad; 500 g ai/ha, scale 0 to 100)
0: Plant response rating, Barnyardgrass (barnyardgrass [1]; [3]) | Plant response rating, Barnyardgrass (barnyardgrass [1]; [4]) | Plant response rating, Barnyardgrass (barnyardgrass [1]; [5]) | Plant response rating, Barnyardgrass (barnyardgrass [1]; [6]) | Plant response rating, Kochia (kochia; [7]) | Plant response rating, Kochia (kochia; [8]) | Kochia plant response rating (0 to 100 scale, 0 is no effect, 100 is complete control) (kochia; Postemergence, 500 g ai/ha) | Plant response rating, Kochia (kochia; preemergence, 500 g ai/ha) | Plant response rating, Ragweed (ragweed; [7]) | Plant response rating, Ragweed (ragweed; [8]) | Ragweed plant response rating (0 to 100 scale, 0 is no effect, 100 is complete control) (ragweed; Postemergence, 500 g ai/ha) | Plant response rating, Ragweed (ragweed; preemergence, 500 g ai/ha) | Plant response rating, Ryegrass, Italian (ryegrass, Italian; [7]) | Plant response rating, Ryegrass, Italian (ryegrass, Italian; [8]) | Ryegrass, Italian plant response rating (0 to 100 scale, 0 is no effect, 100 is complete control) (ryegrass, Italian; Postemergence, 500 g ai/ha) | Plant response rating, Ryegrass, Italian (ryegrass, Italian; preemergence, 500 g ai/ha) | Plant response rating, Foxtail, Giant (giant foxtail; [7]) | Plant response rating, Foxtail, Giant (giant foxtail; [8]) | Foxtail, Giant plant response rating (0 to 100 scale, 0 is no effect, 100 is complete control) (giant foxtail; Postemergence, 500 g ai/ha) | Plant response rating, Foxtail, Giant (giant foxtail; preemergence, 500 g ai/ha) | Plant response rating, Pigweed (pigweed; [7]) | Plant response rating, Pigweed (pigweed; [8]) | Pigweed plant response rating (0 to 100 scale, 0 is no effect, 100 is complete control) (pigweed; Postemergence, 500 g ai/ha) | Plant response rating, Pigweed (pigweed; preemergence, 500 g ai/ha) | Plant response rating, Wheat (wheat) | Wheat plant response rating (0 to 100 scale, 0 is no effect, 100 is complete control) (wheat) | Plant response rating, Corn (corn; [9]) | Plant response rating, Corn (corn; [10]) | Plant response rating, Blackgrass (blackgrass; [9]) | Plant response rating, Blackgrass (blackgrass; [10]) | Plant response rating, Galium (galium) | Galium plant response rating (0 to 100 scale, 0 is no effect, 100 is complete control) (galium) | Plant response rating, Rice (rice; [11]) | Plant response rating, Rice (rice; 250 g ai/ha, scale 0 to 100) | Plant response rating, Rice (rice; 500 g ai/ha, scale 0 to 100) | Plant response rating, Rice (rice; 1000 g ai/ha, scale 0 to 100) | Plant response rating, Sedge, Umbrella (sedge, umbrella; [11]) | Plant response rating, Sedge, Umbrella (sedge, umbrella; 250 g ai/ha, scale 0 to 100) | Plant response rating, Sedge, Umbrella (sedge, umbrella; 500 g ai/ha, scale 0 to 100) | Plant response rating, Sedge, Umbrella (sedge, umbrella; 1000 g ai/ha, scale 0 to 100) | Plant response rating, Barnyardgrass (barnyardgrass [2]; [11]) | Plant response rating, Barnyardgrass (barnyardgrass [2]; 250 g ai/ha, scale 0 to 100) | Plant response rating, Barnyardgrass (barnyardgrass [2]; 500 g ai/ha, scale 0 to 100) | Plant response rating, Barnyardgrass (barnyardgrass [2]; 1000 g ai/ha, scale 0 to 100)
30: Plant response rating, Ducksalad (ducksalad; 250 g ai/ha, scale 0 to 100)
70: Plant response rating, Ducksalad (ducksalad; 1000 g ai/ha, scale 0 to 100)
20: Plant response rating, Ducksalad (ducksalad; [11])
